Common to all, as to assay: Apparent affinity (Kd) by titration of PL peptide in the G assay
Holding throughout (assay type): binding

Experiment [1] has as its target T1, PDZ-domain polypeptide (GST/PDZ fusion protein) (Homo sapiens, UniProt Q86UL8).
T1 construct: made in house; host or cells: E. coli (DH5alpha, BL21 or JM109)
Conditions: PDZ atrophin-1 interacting Protein. The procedure, abridged: (§1)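 A fixed concentration of GST/PDZ fusion protein, 5 ug/ml by default, was mixed in solution with increasing labeled PL peptide (e.g. 0.1 uM-1 mM). Reaction times ranged from 10 minutes to 2 days at 4-37° C. Complexes were separated from free peptide and detected via the label as in the G assay, apparent affinity coming from the saturating concentration.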

In experiment [2] the target is T2, PDZ-domain polypeptide (GST/PDZ fusion protein) (Homo sapiens, UniProt Q02410).
T2 construct: made in house; host or cells: E. coli (DH5alpha, BL21 or JM109)
T2 sequence (Q02410 1-837): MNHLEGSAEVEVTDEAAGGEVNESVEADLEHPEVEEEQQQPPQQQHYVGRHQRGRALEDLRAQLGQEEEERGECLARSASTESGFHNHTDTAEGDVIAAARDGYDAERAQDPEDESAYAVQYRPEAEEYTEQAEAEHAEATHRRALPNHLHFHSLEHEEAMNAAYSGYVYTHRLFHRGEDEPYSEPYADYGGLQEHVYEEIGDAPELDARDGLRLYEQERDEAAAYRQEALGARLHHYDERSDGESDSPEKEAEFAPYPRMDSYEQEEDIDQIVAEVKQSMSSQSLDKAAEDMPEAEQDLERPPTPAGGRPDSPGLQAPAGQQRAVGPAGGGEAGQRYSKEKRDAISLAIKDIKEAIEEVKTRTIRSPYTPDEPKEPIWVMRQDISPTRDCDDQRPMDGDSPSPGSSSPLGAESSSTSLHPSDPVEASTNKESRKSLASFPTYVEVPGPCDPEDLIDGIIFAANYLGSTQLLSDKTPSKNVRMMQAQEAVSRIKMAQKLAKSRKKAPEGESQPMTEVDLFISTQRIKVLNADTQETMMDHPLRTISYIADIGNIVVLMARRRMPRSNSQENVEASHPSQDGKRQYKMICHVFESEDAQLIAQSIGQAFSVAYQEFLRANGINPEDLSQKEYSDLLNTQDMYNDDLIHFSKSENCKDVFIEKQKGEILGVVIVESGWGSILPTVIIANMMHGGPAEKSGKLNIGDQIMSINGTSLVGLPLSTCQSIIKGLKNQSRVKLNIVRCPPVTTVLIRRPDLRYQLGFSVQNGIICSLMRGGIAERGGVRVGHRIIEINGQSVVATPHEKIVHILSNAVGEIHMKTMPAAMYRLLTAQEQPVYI
The method in brief:
as §1

For experiment [3], the target named is T3, PDZ-domain polypeptide (GST/PDZ fusion protein) (Homo sapiens, UniProt O75970).
T3 construct: made in house; host or cells: E. coli (DH5alpha, BL21 or JM109)
T3 sequence (O75970 whole entry, the tested form may be a part): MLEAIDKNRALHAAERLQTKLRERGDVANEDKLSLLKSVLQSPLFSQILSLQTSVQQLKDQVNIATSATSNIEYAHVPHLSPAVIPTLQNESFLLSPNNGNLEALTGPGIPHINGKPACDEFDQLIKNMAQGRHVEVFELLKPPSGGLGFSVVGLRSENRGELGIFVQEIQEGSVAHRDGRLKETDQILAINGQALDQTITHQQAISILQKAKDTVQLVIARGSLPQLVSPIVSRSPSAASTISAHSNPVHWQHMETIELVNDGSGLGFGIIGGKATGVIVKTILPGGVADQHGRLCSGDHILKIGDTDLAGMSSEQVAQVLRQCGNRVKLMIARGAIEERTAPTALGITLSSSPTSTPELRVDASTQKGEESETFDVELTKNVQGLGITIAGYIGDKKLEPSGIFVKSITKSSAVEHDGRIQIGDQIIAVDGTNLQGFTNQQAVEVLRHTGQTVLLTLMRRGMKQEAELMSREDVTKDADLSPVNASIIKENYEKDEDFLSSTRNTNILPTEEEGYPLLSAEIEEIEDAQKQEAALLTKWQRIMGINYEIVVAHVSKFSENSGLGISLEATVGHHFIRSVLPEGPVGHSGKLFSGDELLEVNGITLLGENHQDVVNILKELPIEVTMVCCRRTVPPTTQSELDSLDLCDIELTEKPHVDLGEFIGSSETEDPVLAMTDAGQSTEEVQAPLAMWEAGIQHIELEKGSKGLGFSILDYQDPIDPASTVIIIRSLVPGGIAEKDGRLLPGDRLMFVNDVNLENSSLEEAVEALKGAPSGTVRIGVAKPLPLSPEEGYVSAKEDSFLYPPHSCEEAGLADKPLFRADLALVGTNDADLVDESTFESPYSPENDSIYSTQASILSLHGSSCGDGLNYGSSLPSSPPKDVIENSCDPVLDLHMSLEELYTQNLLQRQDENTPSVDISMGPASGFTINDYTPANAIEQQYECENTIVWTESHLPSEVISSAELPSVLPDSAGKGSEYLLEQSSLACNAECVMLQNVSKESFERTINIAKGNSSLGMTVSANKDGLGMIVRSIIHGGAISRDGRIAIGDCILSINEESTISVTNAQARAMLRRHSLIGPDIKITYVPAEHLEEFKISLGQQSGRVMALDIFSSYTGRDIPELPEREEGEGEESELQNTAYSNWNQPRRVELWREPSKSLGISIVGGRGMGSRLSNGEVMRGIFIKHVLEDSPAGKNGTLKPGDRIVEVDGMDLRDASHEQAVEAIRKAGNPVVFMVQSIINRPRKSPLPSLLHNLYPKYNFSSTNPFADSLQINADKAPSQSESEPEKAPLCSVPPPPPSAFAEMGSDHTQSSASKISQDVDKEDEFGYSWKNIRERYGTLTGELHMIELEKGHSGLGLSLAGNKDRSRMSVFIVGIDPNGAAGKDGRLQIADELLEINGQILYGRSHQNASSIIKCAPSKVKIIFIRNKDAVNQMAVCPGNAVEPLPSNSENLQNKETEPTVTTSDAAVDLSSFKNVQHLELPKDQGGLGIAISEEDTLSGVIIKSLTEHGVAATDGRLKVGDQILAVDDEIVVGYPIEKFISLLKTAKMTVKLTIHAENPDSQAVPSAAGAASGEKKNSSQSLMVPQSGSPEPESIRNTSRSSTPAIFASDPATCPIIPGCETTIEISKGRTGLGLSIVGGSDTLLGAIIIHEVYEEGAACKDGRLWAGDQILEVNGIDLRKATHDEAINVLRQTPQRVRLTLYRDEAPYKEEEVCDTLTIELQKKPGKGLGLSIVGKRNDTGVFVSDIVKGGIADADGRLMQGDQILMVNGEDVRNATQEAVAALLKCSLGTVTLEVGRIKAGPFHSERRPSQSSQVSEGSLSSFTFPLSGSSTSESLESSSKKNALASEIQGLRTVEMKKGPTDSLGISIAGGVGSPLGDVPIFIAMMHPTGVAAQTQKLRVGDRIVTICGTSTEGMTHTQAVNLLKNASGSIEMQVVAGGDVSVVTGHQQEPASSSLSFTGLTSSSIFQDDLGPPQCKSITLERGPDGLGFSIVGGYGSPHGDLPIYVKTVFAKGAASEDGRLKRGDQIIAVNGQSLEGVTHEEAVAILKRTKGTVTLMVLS
The method in brief:
as §1

The mark [4] stands for this setting: PDZ MUPP-1, PDZ Domain 7, titration of the PL peptide, read-out: Peptide Optimal Conc (Kd, dissociation constant).

Where two headings read alike, the source gives them in different places. Peptide text beside a SMILES is read from it. * marks the point of attachment. Biotin = O=C1N[C@H]2[C@H](CS[C@H]2CCCCC(=O)*)N1

T1 sequence (Q86UL8 whole entry, the tested form may be a part): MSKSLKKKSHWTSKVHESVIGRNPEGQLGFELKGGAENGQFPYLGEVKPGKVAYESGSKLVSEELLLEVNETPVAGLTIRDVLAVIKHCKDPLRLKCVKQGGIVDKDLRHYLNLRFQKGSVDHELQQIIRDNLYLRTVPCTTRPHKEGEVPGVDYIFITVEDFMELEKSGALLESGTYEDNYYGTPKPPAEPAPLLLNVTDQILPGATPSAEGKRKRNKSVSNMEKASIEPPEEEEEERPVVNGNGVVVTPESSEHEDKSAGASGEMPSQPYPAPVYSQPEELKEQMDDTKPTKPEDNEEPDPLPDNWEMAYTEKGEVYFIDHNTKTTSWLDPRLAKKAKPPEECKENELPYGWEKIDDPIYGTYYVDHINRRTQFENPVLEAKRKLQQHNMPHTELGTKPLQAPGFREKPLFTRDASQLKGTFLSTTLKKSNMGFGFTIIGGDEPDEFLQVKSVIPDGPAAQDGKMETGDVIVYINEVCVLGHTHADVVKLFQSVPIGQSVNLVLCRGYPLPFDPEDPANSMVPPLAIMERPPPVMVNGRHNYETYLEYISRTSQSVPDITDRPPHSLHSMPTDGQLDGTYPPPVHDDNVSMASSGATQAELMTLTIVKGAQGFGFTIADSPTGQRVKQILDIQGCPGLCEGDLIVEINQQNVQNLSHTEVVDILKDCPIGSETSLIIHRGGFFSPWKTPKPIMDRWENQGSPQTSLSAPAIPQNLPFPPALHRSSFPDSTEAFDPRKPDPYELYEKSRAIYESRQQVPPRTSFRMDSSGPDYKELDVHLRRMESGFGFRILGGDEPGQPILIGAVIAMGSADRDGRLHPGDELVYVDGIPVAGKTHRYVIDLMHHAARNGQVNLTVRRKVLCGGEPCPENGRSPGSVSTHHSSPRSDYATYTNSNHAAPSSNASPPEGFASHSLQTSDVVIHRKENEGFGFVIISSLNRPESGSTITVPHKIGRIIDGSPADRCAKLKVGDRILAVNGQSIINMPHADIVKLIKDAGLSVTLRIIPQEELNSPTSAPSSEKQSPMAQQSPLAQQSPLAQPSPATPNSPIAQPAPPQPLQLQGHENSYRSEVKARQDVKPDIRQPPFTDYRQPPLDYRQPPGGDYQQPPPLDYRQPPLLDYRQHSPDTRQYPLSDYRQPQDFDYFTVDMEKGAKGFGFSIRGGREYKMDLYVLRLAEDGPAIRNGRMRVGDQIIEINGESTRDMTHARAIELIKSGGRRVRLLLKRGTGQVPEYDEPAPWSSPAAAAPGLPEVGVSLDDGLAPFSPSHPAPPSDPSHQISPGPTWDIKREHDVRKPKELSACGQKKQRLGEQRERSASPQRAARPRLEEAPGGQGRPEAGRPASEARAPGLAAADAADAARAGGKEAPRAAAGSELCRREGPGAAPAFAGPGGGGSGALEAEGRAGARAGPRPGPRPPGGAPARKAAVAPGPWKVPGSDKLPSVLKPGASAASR

For the compound `CSCC[C@H](NC(=O)[C@H](C)NC(=O)[C@H](CCCNC(=N)N)NC(=O)CNC(=O)[C@@H](NC(=O)[C@H](Cc1c[nH]c2ccccc12)NC(=O)[C@H](CCCNC(=N)N)NC(=O)CNC(=O)CCCC[C@@H]1SC[C@@H]2NC(=O)N[C@@H]21)[C@@H](C)O)C(=O)N[C@@H](CO)C(=O)N[C@@H](C)C(=O)N[C@@H](Cc1c[nH]c2ccccc12)C(=O)N[C@@H](CCCCN)C(=O)N1CCC[C@H]1C(=O)N[C@H](C(=O)N[C@@H](CCCNC(=N)N)C(=O)N[C@@H](CCCNC(=N)N)C(=O)N[C@@H](CCC(=O)O)C(=O)N[C@H](C(=O)N[C@@H](CCC(=O)O)C(=O)N[C@H](C(=O)O)C(C)C)[C@@H](C)O)[C@@H](C)O` [HPV E6 #35 (modified)] (Biotin-GRWTGRAMSAWKPTRRETEV-OH; C-terminus assumed), in experiment [1] (PDZ Domain 2, read-out: Peptide Optimal Conc (Kd by titration of the PL peptide)), the Kd is 800 nM.

As to `CC[C@H](C)[C@H](NC(=O)CNC(=O)[C@H](CO)NC(=O)[C@H](Cc1ccccc1)NC(=O)[C@@H](NC(=O)[C@H](CS)NC(=O)CNC(=O)CNC(=O)[C@H](C)NC(=O)[C@@H]1CCCN1C(=O)[C@@H](NC(=O)[C@@H]1CCCN1C(=O)CCCC[C@@H]1SC[C@@H]2NC(=O)N[C@@H]21)[C@@H](C)CC)[C@@H](C)O)C(=O)N[C@@H](Cc1ccccc1)C(=O)N1CCC[C@H]1C(=O)N[C@H](C(=O)N[C@@H](CC(C)C)C(=O)N[C@H](C(=O)N[C@@H](CO)C(=O)N1CCC[C@H]1C(=O)N[C@@H](CC(C)C)C(=O)O)[C@@H](C)O)[C@@H](C)O` [KIA 1481] (Biotin-PIPAGGCTFSGIFPTLTSPL-OH; C-terminus assumed), in experiment [2] (PDZ Mint 1, PDZ Domain 1, 2, read-out: Peptide Optimal Conc (non-zero value: Kd by titration of the PL peptide)), the Kd amounted to 800 nM.

For the compound `CC[C@H](C)[C@H](NC(=O)[C@H](CC(=O)O)NC(=O)[C@H](CCC(=O)O)NC(=O)[C@H](CCCNC(=N)N)NC(=O)[C@@H](NC(=O)CCCC[C@@H]1SC[C@@H]2NC(=O)N[C@@H]21)[C@@H](C)O)C(=O)N[C@@H](Cc1ccc(O)cc1)C(=O)N[C@H](C(=O)N[C@@H](CC(N)=O)C(=O)N[C@@H](Cc1ccc(O)cc1)C(=O)N1CCC[C@H]1C(=O)N[C@H](C(=O)N[C@@H](Cc1ccccc1)C(=O)N[C@@H](CO)C(=O)N[C@@H](CCCNC(=N)N)C(=O)N[C@@H](CCCNC(=N)N)C(=O)N1CCC[C@H]1C(=O)N[C@@H](CCCCN)C(=O)N[C@H](C(=O)N[C@@H](CCCNC(=N)N)C(=O)N[C@H](C(=O)O)C(C)C)[C@@H](C)O)[C@@H](C)O)C(C)C` [DNAM-1] (Biotin-TREDIYVNYPTFSRRPKTRV-OH; C-terminus assumed), the Kd came out at 2500 nM in experiment [3] (Peptide Optimal Conc (Kd by titration of the PL peptide), PDZ MUPP-1, PDZ Domain 10) and 3000 nM in experiment [1] (Peptide Optimal Conc (Kd by titration of the PL peptide), PDZ Domain 1).

`CC[C@H](C)[C@H](NC(=O)[C@H](Cc1ccc(O)cc1)NC(=O)[C@H](CC(C)C)NC(=O)[C@H](CCC(N)=O)NC(=O)[C@H](Cc1c[nH]cn1)NC(=O)[C@H](CO)NC(=O)[C@H](C)NC(=O)[C@H](CC(C)C)NC(=O)[C@@H](NC(=O)[C@H](CC(=O)O)NC(=O)[C@H](CCSC)NC(=O)[C@H](Cc1ccccc1)NC(=O)[C@@H]1CCCN1C(=O)[C@H](CCCNC(=N)N)NC(=O)[C@@H](NC(=O)[C@H](CC(C)C)NC(=O)[C@H](CC(N)=O)NC(=O)[C@H](CC(=O)O)NC(=O)[C@@H](NC(=O)[C@H](CO)NC(=O)CCCC[C@@H]1SC[C@@H]2NC(=O)N[C@@H]21)[C@@H](C)O)C(C)C)[C@@H](C)O)C(=O)O` [presenilin-2] (Biotin-STDNLVRPFMDTLASHQLYI-OH; C-terminus assumed): the Kd is 4000 nM in experiment [3] (setting [4]) and 6000 nM in experiment [2] (PDZ Mint 1, PDZ Domain 1, 2, titration of the PL peptide, read-out: Peptide Optimal Conc (Kd, dissociation constant)).

For `CC[C@H](C)[C@H](NC(=O)[C@H](Cc1ccc(O)cc1)NC(=O)[C@@H](NC(=O)[C@@H]1CCCN1C(=O)[C@H](CCC(N)=O)NC(=O)[C@H](CCC(=O)O)NC(=O)[C@H](CCC(N)=O)NC(=O)[C@H](C)NC(=O)[C@@H](NC(=O)[C@H](CC(C)C)NC(=O)[C@H](CC(C)C)NC(=O)[C@H](CCCNC(=N)N)NC(=O)[C@H](Cc1ccc(O)cc1)NC(=O)[C@H](CCSC)NC(=O)[C@H](C)NC(=O)[C@H](C)NC(=O)[C@@H]1CCCN1C(=O)[C@H](CCSC)NC(=O)[C@@H](NC(=O)[C@H](CCCCN)NC(=O)CCCC[C@@H]1SC[C@@H]2NC(=O)N[C@@H]21)[C@@H](C)O)[C@@H](C)O)C(C)C)C(=O)O` [MINT-1] (Biotin-KTMPAAMYRLLTAQEQPVYI-OH; C-terminus assumed), the Kd amounted to 1500 nM in experiment [3] (setting [4]) and 2000 nM in experiment [2] (PDZ Mint 1, PDZ Domain 1, titration of the PL peptide, read-out: Peptide Optimal Conc (Kd, dissociation constant)).

As for `CC[C@H](C)[C@H](NC(=O)[C@H](CCCCN)NC(=O)[C@@H](NC(=O)[C@H](CO)NC(=O)[C@@H]1CCCN1C(=O)[C@H](Cc1ccccc1)NC(=O)[C@@H](NC(=O)[C@@H](NC(=O)[C@H](CCCNC(=N)N)NC(=O)[C@H](CCC(=O)O)NC(=O)[C@H](CC(C)C)NC(=O)[C@H](CC(C)C)NC(=O)[C@H](CC(C)C)NC(=O)[C@@H](NC(=O)CNC(=O)[C@@H](NC(=O)CCCC[C@@H]1SC[C@@H]2NC(=O)N[C@@H]21)C(C)C)[C@@H](C)O)C(C)C)[C@@H](C)CC)C(C)C)C(=O)N[C@@H](C)C(=O)N[C@H](C(=O)N[C@@H](CC(C)C)C(=O)N[C@H](C(=O)O)C(C)C)[C@@H](C)O` [Adenovirus E4 Type9], the Kd was found to be 100 nM in experiment [3] (PDZ MUPP-1, PDZ Domain 11, Protein Optimal Conc 5, read-out: Peptide Optimal Conc (Kd by titration of the PL peptide)); 20 nM in experiment [1] (PDZ Domain 1, Protein Optimal Conc 0.5, read-out: Peptide Optimal Conc (Kd by titration of the PL peptide)); 100 nM in experiment [1] (PDZ Domain 3, Protein Optimal Conc 5, read-out: Peptide Optimal Conc (Kd by titration of the PL peptide)).

`CC[C@H](C)[C@H](NC(=O)[C@H](C)NC(=O)[C@H](CC(C)C)NC(=O)[C@H](Cc1c[nH]c2ccccc12)NC(=O)[C@H](Cc1c[nH]cn1)NC(=O)[C@H](CCC(N)=O)NC(=O)[C@H](CC(C)C)NC(=O)[C@H](CCC(N)=O)NC(=O)[C@H](Cc1ccccc1)NC(=O)[C@H](CCC(N)=O)NC(=O)[C@H](CCCNC(=N)N)NC(=O)[C@@H](NC(=O)[C@H](CC(=O)O)NC(=O)[C@H](CCCNC(=N)N)NC(=O)[C@H](CCC(N)=O)NC(=O)[C@H](C)NC(=O)[C@@H](NC(=O)[C@H](CC(C)C)NC(=O)[C@H](Cc1c[nH]cn1)NC(=O)[C@H](Cc1c[nH]cn1)NC(=O)CCCC[C@@H]1SC[C@@H]2NC(=O)N[C@@H]21)C(C)C)[C@@H](C)CC)C(=O)O` [noradrenaline transporter] (Biotin-HHLVAQRDIRQFQLQHWLAI-OH; C-terminus assumed): the Kd in experiment [3] (Peptide Optimal Conc (Kd by titration of the PL peptide), PDZ MUPP-1, PDZ Domain 3) is 400 nM; in experiment [3] (Peptide Optimal Conc (Kd by titration of the PL peptide), PDZ MUPP-1, PDZ Domain 7), 800 nM; in experiment [3] (Peptide Optimal Conc (Kd by titration of the PL peptide), PDZ MUPP-1, PDZ Domain 9), 700 nM; in experiment [2] (Peptide Optimal Conc (Kd by titration of the PL peptide), PDZ Mint 1, PDZ Domain 1, 2) it was 500 nM.

Regarding `CC(C)C[C@H](NC(=O)CNC(=O)[C@@H](NC(=O)[C@H](CO)NC(=O)[C@H](CC(N)=O)NC(=O)[C@H](Cc1ccccc1)NC(=O)CNC(=O)[C@H](C)NC(=O)[C@H](C)NC(=O)[C@H](Cc1ccccc1)NC(=O)[C@@H](NC(=O)CCCC[C@@H]1SC[C@@H]2NC(=O)N[C@@H]21)[C@@H](C)O)[C@@H](C)O)C(=O)N1CCC[C@H]1C(=O)N[C@@H](Cc1c[nH]cn1)C(=O)N[C@@H](CO)C(=O)N[C@H](C(=O)N[C@H](C(=O)N[C@@H](CCCNC(=N)N)C(=O)N[C@H](C(=O)O)C(C)C)[C@@H](C)O)[C@@H](C)O` [Neuroligin] (Biotin-TFAAGFNSTGLPHSTTRV-OH; C-terminus assumed), the Kd in experiment [1] (PDZ Domain 1, read-out: Peptide Optimal Conc (Kd by titration of the PL peptide)) was determined as 250 nM.

The values are drawn from patent publication US20050282743A1, “Molecular interactions in cells” (Arbor Vita Corporation, priority 2001, published 2005).
